23 molecules from PubChem BioAssay AID330 (DTP/NCI, 2004) can be followed below.

Where “and” joins values, the source holds several entries; their conditions need not be identical. Equal values may be shown once. Inconclusive results and toxic doses are left out. Peptide text beside a SMILES is read from it. * marks the point of attachment. Cbz = O=C(OCc1ccccc1)*

For this assay, the system named is P388 leukemia ip, CD2F1 mice, survival T/C. The assay can be described thus: NCI In Vivo Anticancer Drug Screen. Data for tumor model P388 Leukemia (intraperitoneal) in CD2F1 (CDF1) mice. The following applies: endpoint: median survival time, higher = longer survival. In a few lines: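 Mice carrying the transplanted tumor received test compound or vehicle. Survival was recorded in each group, and the value is the treated-group measurement divided by that of the vehicle-treated control group.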

Setting [1] is: dose: 50.0 mg/kg/injection, schedule: Q01DX009 (ip), vehicle: Klucel (hydroxypropylcellulose) (HPC).
[2] abbreviates: dose: 100.0 mg/kg/injection, schedule: Q01DX009 (ip), vehicle: Klucel (hydroxypropylcellulose) (HPC).
Where [3] appears, read: dose: 200.0 mg/kg/injection, schedule: Q01DX009 (ip), vehicle: Klucel (hydroxypropylcellulose) (HPC).
The mark [4] stands for this setting: dose: 100.0 mg/kg/injection, schedule: Q04DX002 (ip), vehicle: saline with Tween-80.
[5] abbreviates: dose: 50.0 mg/kg/injection, schedule: Q01DX009 (ip), vehicle: saline with Tween-80.
[6] abbreviates: dose: 100.0 mg/kg/injection, schedule: Q01DX009 (ip), vehicle: saline with Tween-80.
Where [7] appears, read: dose: 200.0 mg/kg/injection, schedule: Q01DX009 (ip), vehicle: saline with Tween-80.
The mark [8] stands for this setting: dose: 50.0 mg/kg/injection, schedule: Q01DX005 (ip), vehicle: Klucel (hydroxypropylcellulose) (HPC).
The mark [9] stands for this setting: dose: 100.0 mg/kg/injection, schedule: Q01DX005 (ip), vehicle: Klucel (hydroxypropylcellulose) (HPC).
The mark [10] stands for this setting: dose: 200.0 mg/kg/injection, schedule: Q01DX005 (ip), vehicle: Klucel (hydroxypropylcellulose) (HPC).
The mark [11] stands for this setting: dose: 60.0 mg/kg/injection, schedule: Q01DX005 (ip), vehicle: saline with Tween-80.
Where [12] appears, read: dose: 120.0 mg/kg/injection, schedule: Q01DX005 (ip), vehicle: saline with Tween-80.

Regarding `N#CN=CN1CC2CCC(CC2)C1`, the T/C by setting is: (dose: 3.13 mg/kg/injection, schedule: Q01DX009 (ip), vehicle: saline) 98 % of control; (dose: 6.25 mg/kg/injection, schedule: Q01DX009 (ip), vehicle: saline) 102 % of control; (dose: 12.5 mg/kg/injection, schedule: Q01DX009 (ip), vehicle: saline) 92 % of control.
Turning to `COc1cc([N+](=O)[O-])ccc1N=Cc1ccc(C=Nc2ccc([N+](=O)[O-])cc2OC)cc1`, the T/C is, setting by setting: under setting [1], 95 % of control and 96 % of control; under setting [2], 86 % of control and 96 % of control; under setting [3], 96 % of control.
As to `C=Cn1c([N+](=O)[O-])cnc1/C=C/c1ccc(C(=O)NC)cc1`, the T/C was 100 % of control under setting [4]; 102 % of control (dose: 200.0 mg/kg/injection, schedule: Q04DX002 (ip), vehicle: saline with Tween-80); 95 % of control (dose: 400.0 mg/kg/injection, schedule: Q04DX002 (ip), vehicle: saline with Tween-80).
In the case of `COc1c(C(C)C)ccc2c1CCC1C3=C(CCC21C)C(=O)OC3` (configuration not stated), the T/C is, setting by setting: (dose: 6.25 mg/kg/injection, schedule: Q01DX009 (ip), vehicle: DMSO) 109 % of control; (dose: 12.5 mg/kg/injection, schedule: Q01DX009 (ip), vehicle: DMSO) 100 % of control; (dose: 25.0 mg/kg/injection, schedule: Q01DX009 (ip), vehicle: DMSO) 106 % of control.
As to `CN(CCCl)C(=O)c1ccc([N+](=O)[O-])cc1`, the T/C is 105 % of control under setting [5], 116 % of control under setting [6] and 101 % of control under setting [7].
In the case of `CSc1ccc2ns[s+]c2c1`, the T/C is, setting by setting: (dose: 50.0 mg/kg/injection, schedule: Q01DX005 (ip), vehicle: saline with Tween-80) 104 % of control; (dose: 100.0 mg/kg/injection, schedule: Q01DX005 (ip), vehicle: saline with Tween-80) 102 % of control; (dose: 200.0 mg/kg/injection, schedule: Q01DX005 (ip), vehicle: saline with Tween-80) 101 % of control.
As to `CC1(C)CC(OP(=O)(N(CCCl)CCCl)N2CC2)CC(C)(C)N1O` (configuration not stated), the T/C reads like this: (dose: 13.0 mg/kg/injection, schedule: Q01DX009 (ip), vehicle: saline + alcohol) 102 % of control; (dose: 25.0 mg/kg/injection, schedule: Q01DX009 (ip), vehicle: saline + alcohol) 102 % of control; (dose: 50.0 mg/kg/injection, schedule: Q01DX009 (ip), vehicle: saline + alcohol) 114 % of control.
As to `CCC(=O)Nc1ccc(N)cc1`, the T/C runs as follows: (dose: 100.0 mg/kg/injection, schedule: Q04DX003 (ip), vehicle: saline) 98 % of control; (dose: 200.0 mg/kg/injection, schedule: Q04DX003 (ip), vehicle: saline) 97 % of control.
Turning to `CCN(CC)CCNC`, the T/C was 99 % of control (dose: 50.0 mg/kg/injection, schedule: Q01DX005 (ip), vehicle: saline); 95 % of control (dose: 100.0 mg/kg/injection, schedule: Q01DX005 (ip), vehicle: saline); 98 % of control (dose: 200.0 mg/kg/injection, schedule: Q01DX005 (ip), vehicle: saline).
With `CC1CCC2(OC1)OC1CC3C4CC=C5CC(O)CCC5(C)C4CCC3(C)C1C2C` (configuration not stated), the T/C runs as follows: under setting [8], 100 % of control; under setting [9], 89 % of control; under setting [10], 86 % of control.
On to `Cc1c(-c2ccccc2)[nH]c2cc3c(cc12)Oc1ccccc1O3`, for which the T/C is, setting by setting: (dose: 17.5 mg/kg/injection, schedule: Q01DX009 (ip), vehicle: Klucel (hydroxypropylcellulose) (HPC)) 101 % of control; (dose: 35.0 mg/kg/injection, schedule: Q01DX009 (ip), vehicle: Klucel (hydroxypropylcellulose) (HPC)) 106 % of control; (dose: 70.0 mg/kg/injection, schedule: Q01DX009 (ip), vehicle: Klucel (hydroxypropylcellulose) (HPC)) 105 % of control.
On to `CC1=NN(c2ccc(S(=O)(=O)O)cc2)C(=O)C1N=Nc1ccc(C)c(S(=O)(=O)Nc2ccccc2)c1` (configuration not stated), for which the T/C runs as follows: under setting [1], 101 % of control; under setting [2], 99 % of control; under setting [3], 101 % of control.
Regarding `C=CCC1(C)C(=O)CCC1=O`, the T/C was 110 % of control under setting [11]; 102 % of control under setting [12]; 98 % of control (dose: 240.0 mg/kg/injection, schedule: Q01DX005 (ip), vehicle: saline with Tween-80).
On to `FC(F)(F)/C([S-])=C(/[S-])C(F)(F)F.FC(F)(F)/C([S-])=C(/[S-])C(F)(F)F.FC(F)(F)/C([S-])=C(/[S-])C(F)(F)F.FC(F)(F)/C([S-])=C(/[S-])C(F)(F)F.[Co+3].[Co+3]`, for which the T/C (dose: 33.0 mg/kg/injection, schedule: Q04DX003 (ip), vehicle: other) was 107 % of control and the T/C (dose: 50.0 mg/kg/injection, schedule: Q04DX003 (ip), vehicle: other) was 100 % of control.
With `CCN(CC)CCNc1c(OC)c(OC)cc2nccnc12`, the T/C runs as follows: (dose: 25.0 mg/kg/injection, schedule: Q01DX005 (ip), vehicle: suspension in saline) 98 % of control; (dose: 50.0 mg/kg/injection, schedule: Q01DX005 (ip), vehicle: suspension in saline) 98 % of control; (dose: 100.0 mg/kg/injection, schedule: Q01DX005 (ip), vehicle: suspension in saline) 98 % of control.
With `Cc1cc(N)c(C)c(Br)c1C`, the T/C reads like this: under setting [5], 106 % of control; under setting [6], 99 % of control; under setting [7], 106 % of control.
Turning to `CCCCCCCC(=O)N/N=C(\CO)[C@]1(O)Cc2c(O)c3c(c(O)c2[C@@H](OC2CC(N)C(O)C(C)O2)C1)C(=O)c1c(OC)cccc1C3=O` (some centres not stated), the T/C (dose: 1.25 mg/kg/injection, schedule: Q04DX003 (ip), vehicle: water) was 109 % of control; the T/C (dose: 2.5 mg/kg/injection, schedule: Q04DX003 (ip), vehicle: water) is 109 % of control; the T/C (dose: 5.0 mg/kg/injection, schedule: Q04DX003 (ip), vehicle: water) is 107 % of control; the T/C (dose: 10.0 mg/kg/injection, schedule: Q04DX003 (ip), vehicle: water) was 119 % of control and 121 % of control; the T/C (dose: 20.0 mg/kg/injection, schedule: Q04DX003 (ip), vehicle: water) is 123 % of control; the T/C (dose: 80.0 mg/kg/injection, schedule: Q04DX003 (ip), vehicle: water) is 179 % of control.
With `CC(C)N=C(C1=C(O)c2ccccc2C1=O)c1ccccc1`, the T/C by setting is: (dose: 25.0 mg/kg/injection, schedule: Q04DX002 (ip), vehicle: saline with Tween-80) 100 % of control; (dose: 50.0 mg/kg/injection, schedule: Q04DX002 (ip), vehicle: saline with Tween-80) 104 % of control; under setting [4], 100 % of control.
Regarding `COc1cc2c(cc1OC)C1C(CC(=O)O)CCCN1CC2` (configuration not stated), the T/C under setting [8] is 112 % of control, the T/C under setting [9] was 100 % of control and the T/C under setting [10] was 100 % of control.
With `CC(C)C(NC(=O)C(Cc1cnc[nH]1)NC(=O)OCc1ccccc1)C(=O)O` (stereo not drawn) (Cbz-His-Val-OH; configuration not given here), the T/C reads like this: under setting [8], 101 % of control; under setting [9], 96 % of control; under setting [10], 100 % of control.
Turning to `c1ccc(CN2CCC(N3CNc4ccccc43)CC2)cc1`, the T/C is, setting by setting: (dose: 25.0 mg/kg/injection, schedule: Q04DX003 (ip), vehicle: saline with Tween-80) 109 % of control; (dose: 50.0 mg/kg/injection, schedule: Q04DX003 (ip), vehicle: saline with Tween-80) 114 % of control; (dose: 100.0 mg/kg/injection, schedule: Q04DX003 (ip), vehicle: saline with Tween-80) 88 % of control.
On to `CCOC(=O)C(CC(C)C(C)=O)C(=O)OCC` (configuration not stated), for which the T/C is, setting by setting: (dose: 12.5 mg/kg/injection, schedule: Q01DX009 (ip), vehicle: other) 93 % of control; (dose: 25.0 mg/kg/injection, schedule: Q01DX009 (ip), vehicle: other) 90 % of control; (dose: 50.0 mg/kg/injection, schedule: Q01DX009 (ip), vehicle: other) 94 % of control; (dose: 100.0 mg/kg/injection, schedule: Q01DX009 (ip), vehicle: other) 97 % of control; (dose: 200.0 mg/kg/injection, schedule: Q01DX009 (ip), vehicle: other) 103 % of control.
As to `N#CCc1nc2ccccc2s1`, the T/C (dose: 30.0 mg/kg/injection, schedule: Q01DX005 (ip), vehicle: saline with Tween-80) was 102 % of control; the T/C under setting [11] was 107 % of control; the T/C under setting [12] was 102 % of control.
